Values of other authors, collected in patent US20070042999A1, “Phosphate derivatives of pharmaceutical products” (priority 2003, published 2007).

Assays:
[1] = administered orally
[2] = in vivo

SMILES	fraction of the administered dose available in the active form [1]	bioavailability [2]
C[C@]12CC[C@H]3[C@@H](CCC4=CC(=O)CC[C@@]43C)[C@@H]1CC[C@@H]2O [testosterone]	less than one sixth	
N[C@@H](Cc1cc(I)c(Oc2cc(I)c(O)c(I)c2)c(I)c1)C(=O)O [Thyroxine, thyroxine]		50-80%
